According to patent US20110021565A1, “PIPERIDINE DERIVATIVES AS NK3 ANTAGONISTS” (priority 2007, published 2011):
Where two headings read alike, the source gives them in different places.

Biological target: T1, recombinant human NK3 receptor (Homo sapiens, UniProt P29371)
T1 construct: expressed in transfected cells; host or cells: HEK293 cells, transient expression; membrane preparation
T1 sequence (P29371 1-465): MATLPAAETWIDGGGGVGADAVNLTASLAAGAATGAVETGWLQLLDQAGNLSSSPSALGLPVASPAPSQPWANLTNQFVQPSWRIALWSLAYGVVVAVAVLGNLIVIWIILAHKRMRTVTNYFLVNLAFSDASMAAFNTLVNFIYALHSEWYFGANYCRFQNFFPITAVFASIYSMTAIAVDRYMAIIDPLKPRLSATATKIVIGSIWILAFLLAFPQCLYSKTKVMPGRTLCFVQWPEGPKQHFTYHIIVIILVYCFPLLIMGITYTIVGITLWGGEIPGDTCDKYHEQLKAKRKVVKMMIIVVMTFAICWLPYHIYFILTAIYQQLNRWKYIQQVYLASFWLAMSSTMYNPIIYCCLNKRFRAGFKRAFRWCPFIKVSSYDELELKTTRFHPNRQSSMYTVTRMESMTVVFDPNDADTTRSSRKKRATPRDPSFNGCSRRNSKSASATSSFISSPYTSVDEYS
Assay: [3H]SR142801 competition binding assay
Protocol: [^3H]SR142801 Competition Binding Assay
hNK3 receptor binding experiment were performed using [^3H]SR142801 (Catalog No. TRK1035, specific activity: 74.0 Ci/mmol, Amersham, GE Healthcare UK limited, Buckinghamshire, UK) and membrane isolated from HEK293 cells transiently expressing recombinant human NK3 receptor. After thawing, the membrane homogenates were centrifuged at 48,000×g for 10 min at 4° C., the pellets were resuspended in the 50 mM Tris-HCl, 4 mM MnCl2, 1 μM phosphoramidon, 0.1% BSA binding buffer at pH 7.4 to a final assay concentration of 5 μg protein/well. For inhibition experiments, membranes were incubated with [^3H]SR142801 at a concentration equal to KD value of radioligand and 10 concentrations of the inhibitory compound (0.0003-10 μM) (in a total reaction volume of 500 μl) for 75 min at room temperature (RT). At the end of the incubation, membranes were filtered onto unitfilter (96-well white microplate with bonded GF/C filter preincubated 1 h in 0.3% PEI+0.3% BSA, Packard BioScience, Meriden, Conn.) with a Filtermate 196 harvester (Packard BioScience) and washed 4 times with ice-cold 50 mM Tris-HCl, pH 7.4 buffer. Nonspecific binding was measured in the presence of 10 μM SB222200 for both radioligands. The radioactivity on the filter was counted (5 min) on a Packard Top-count microplate scintillation counter with quenching correction after addition of 45 μl of microscint 40 (Canberra Packard S. A., Zurich, Switzerland) and shaking for 1 h. Inhibition curves were fitted according to the Hill equation: y=100/(1+(x/IC50)^nH), where nH=slope factor using Excel-fit 4 software ([…]). IC50 values were derived from the inhibition curve and the affinity constant (IQ values were calculated using the Cheng-Prussoff equation Ki=IC50/(1+[L]/KD) where [L] is the concentration of radioligand and KD is its dissociation constant at the receptor, derived from the saturation isotherm. All experiments were performed in duplicate and the mean±standard error (SEM) of the individual Ki values was calculated.

[1] = [3H]SR142801, membranes of HEK293 cells transiently expressing recombinant human NK3 receptor, read-out: hNK3 Ki
[2] = representative compounds, [3H]SR142801, HEK293 membranes, human NK3 receptor, read-out: Ki NK3 h

Ki [1] | Ki [2] | SMILES
50.5 nM | – | CC(=O)NC1CCN(CCC(C)(C(=O)N[C@@H](CO)c2ccc(Cl)cc2)c2ccc(Cl)c(Cl)c2)CC1 (single isomer, unassigned; diastereoisomer 1) [Example 156, 4-(4-Acetylamino-piperidin-1-yl)-N-[1-(4-chloro-phenyl)-2-hydroxy-ethyl]-2-(3,4-dichloro-phenyl)-2-methyl-butyramide (diastereoisomer 1)]
34.6 nM | – | CC(=O)NC1CCN(CCC(C)(C(=O)N[C@@H](CO)c2ccc(Cl)c(Cl)c2)c2ccc(Cl)c(Cl)c2)CC1 (single isomer, unassigned; diastereoisomer 1) [Example 158]
773 nM | – | CC(=O)NC1CCN(CCC(C)(C(=O)N[C@@H](CO)c2ccc(Cl)cc2)c2ccc(Cl)c(Cl)c2)CC1 (single isomer, unassigned; diastereoisomer 2) [Example 157, 4-(4-Acetylamino-piperidin-1-yl)-N-[1-(4-chloro-phenyl)-2-hydroxy-ethyl]-2-(3,4-dichloro-phenyl)-2-methyl-butyramide (diastereoisomer 2)]
258 nM | – | CC(=O)NC1CCN(CCC(C)(C(=O)N[C@H](CO)c2ccc(Cl)c(Cl)c2)c2ccc(Cl)c(Cl)c2)CC1 (single isomer, unassigned; diastereoisomer 2) [Example 159]
0.5 nM | 0.5 nM | CCCN(C(C)=O)C1CCN(CCC(C)(C(=O)N[C@@H](CO)c2ccc(F)cc2)c2ccc(Cl)c(Cl)c2)CC1 (single isomer, unassigned; epimer 1) [Example 162]
2.2 nM | 2.2 nM | CCN(C(C)=O)C1CCN(CCC(C)(C(=O)N[C@@H](CO)c2ccc(F)cc2)c2ccc(Cl)c(Cl)c2)CC1 (single isomer, unassigned; epimer 1) [Example 166]
5.6 nM | 5.6 nM | CCCN(C(C)=O)C1CCN(CCC(C)(C(=O)N[C@@H](CO)c2ccc(F)cc2)c2ccc(Cl)c(Cl)c2)CC1 (single isomer, unassigned; epimer 2) [Example 163]

Further lines, the compound ahead of its results:

SMILES | Ki [1] | Ki [2]
CC(=O)N(C1CC1)C1CCN(CCC(C)(C(=O)N[C@@H](CO)c2ccc(Cl)cc2)c2ccc(Cl)c(Cl)c2)CC1 (single isomer, unassigned; diastereoisomer 1) [Example 142, 4-[4-(Acetyl-cyclopropyl-amino)-piperidin-1-yl]-N-[1-(4-chloro-phenyl)-2-hydroxy-ethyl]-2-(3,4-dichloro-phenyl)-2-methyl-butyramide (diastereoisomer 1)] | 10.9 nM | –
CC(=O)N(C1CC1)C1CCN(CCC(C)(C(=O)N[C@@H](CO)c2ccc(Cl)c(Cl)c2)c2ccc(Cl)c(Cl)c2)CC1 (single isomer, unassigned; diastereoisomer 1) [Example 144, 4-[4-(Acetyl-cyclopropyl-amino)-piperidin-1-yl]-2-(3,4-dichloro-phenyl)-N-[1-(3,4-dichloro-phenyl)-2-hydroxy-ethyl]-2-methyl-butyramide (diastereoisomer 1)] | 10.1 nM | –
COCCN(C(C)=O)C1CCN(CCC(C)(C(=O)N[C@@H](CO)c2ccc(F)cc2)c2ccc(Cl)c(Cl)c2)CC1 (single isomer, unassigned; diastereoisomer 1) [Example 146, 4-{4-[Acetyl-(2-methoxy-ethyl)-amino]-piperidin-1-yl}-2-(3,4-dichloro-phenyl)-N-[1-(4-fluoro-phenyl)-2-hydroxy-ethyl]-2-methyl-butyramide (diastereoisomer 1)] | 0.7 nM | 0.7 nM
CC(=O)NC1CCN(CCC(C)(C(=O)N[C@@H](CO)c2ccc(F)cc2)c2ccc(Cl)c(Cl)c2)CC1 (single isomer, unassigned; diastereoisomer 1) [Example 154, 4-(4-Acetylamino-piperidin-1-yl)-2-(3,4-dichloro-phenyl)-N-[1-(4-fluoro-phenyl)-2-hydroxy-ethyl]-2-methyl-butyramide (diastereoisomer 1)] | 170 nM | –
CN(C1CCN(CCC(C)(C(=O)N[C@H](CO)c2ccc(Cl)c(Cl)c2)c2ccc(Cl)c(Cl)c2)CC1)S(C)(=O)=O (single isomer, unassigned; diastereoisomer 2) [Example 50, 2-(3,4-Dichloro-phenyl)-N-[1-(3,4-dichloro-phenyl)-2-hydroxy-ethyl]-4-[4-(methanesulfonyl-methyl-amino)-piperidin-1-yl]-2-methyl-butyramide; diastereoisomer 2] | 52.1 nM | –
CCN(C1CCN(CCC(C)(C(=O)N[C@H](CO)c2ccc(Cl)c(Cl)c2)c2ccc(Cl)c(Cl)c2)CC1)S(C)(=O)=O (single isomer, unassigned; diastereoisomer 2) [Example 80, 2-(3,4-Dichloro-phenyl)-N-[1-(3,4-dichloro-phenyl)-2-hydroxy-ethyl]-4-[4-(ethyl-methanesulfonyl-amino)-piperidin-1-yl]-2-methyl-butyramide; diastereoisomer 2] | 13.3 nM | –
CC(CCN1CCC(N2CCCC2=O)CC1)(C(=O)N[C@H](CO)c1ccc(Cl)c(Cl)c1)c1ccc(Cl)c(Cl)c1 (single isomer, unassigned; diastereoisomer 2) [Example 98, 2-(3,4-Dichloro-phenyl)-N-[1-(3,4-dichloro-phenyl)-2-hydroxy-ethyl]-2-methyl-4-[4-(2-oxo-pyrrolidin-1-yl)-piperidin-1-yl]-butyramide; diastereoisomer 2] | 49.9 nM | –
CC(=O)N(C)C1CCN(CCC(C)(C(=O)N[C@H](CO)c2ccc(Cl)c(Cl)c2)c2ccc(Cl)c(Cl)c2)CC1 (single isomer, unassigned; diastereoisomer 2) [Example 110, 4-[4-(Acetyl-methyl-amino)-piperidin-1-yl]-2-(3,4-dichloro-phenyl)-N-[1-(3,4-dichloro-phenyl)-2-hydroxy-ethyl]-2-methyl-butyramide; diastereoisomer 2] | 110 nM | –
CC(=O)N(C)C1CCN(CCC(C)(C(=O)N[C@H](CO)c2ccc(F)cc2)c2ccc(Cl)c(Cl)c2)CC1 (single isomer, unassigned; diastereoisomer 2) [Example 139, 4-[4-(Acetyl-methyl-amino)-piperidin-1-yl]-2-(3,4-dichloro-phenyl)-N-[1-(4-fluoro-phenyl)-2-hydroxy-ethyl]-2-methyl-butyramide (diastereoisomer 2)] | 141 nM | –
CC(=O)N(C1CC1)C1CCN(CCC(C)(C(=O)N[C@H](CO)c2ccc(F)cc2)c2ccc(Cl)c(Cl)c2)CC1 (single isomer, unassigned; diastereoisomer 2) [Example 141, 4-[4-(Acetyl-cyclopropyl-amino)-piperidin-1-yl]-2-(3,4-dichloro-phenyl)-N-[1-(4-fluoro-phenyl)-2-hydroxy-ethyl]-2-methyl-butyramide (diastereoisomer 2)] | 165 nM | –
CC(=O)N(C1CC1)C1CCN(CCC(C)(C(=O)N[C@@H](CO)c2ccc(Cl)cc2)c2ccc(Cl)c(Cl)c2)CC1 (single isomer, unassigned; diastereoisomer 2) [Example 143, 4-[4-(Acetyl-cyclopropyl-amino)-piperidin-1-yl]-N-[1-(4-chloro-phenyl)-2-hydroxy-ethyl]-2-(3,4-dichloro-phenyl)-2-methyl-butyramide (diastereoisomer 2)] | 87.7 nM | –
CC(=O)N(C1CC1)C1CCN(CCC(C)(C(=O)N[C@H](CO)c2ccc(Cl)c(Cl)c2)c2ccc(Cl)c(Cl)c2)CC1 (single isomer, unassigned; diastereoisomer 2) [Example 145, 4-[4-(Acetyl-cyclopropyl-amino)-piperidin-1-yl]-2-(3,4-dichloro-phenyl)-N-[1-(3,4-dichloro-phenyl)-2-hydroxy-ethyl]-2-methyl-butyramide (diastereoisomer 2)] | 50.2 nM | –
CC(=O)NC1CCN(CCC(C)(C(=O)N[C@H](CO)c2ccc(F)cc2)c2ccc(Cl)c(Cl)c2)CC1 (single isomer, unassigned; diastereoisomer 2) [Example 155, 4-(4-Acetylamino-piperidin-1-yl)-2-(3,4-dichloro-phenyl)-N-[1-(4-fluoro-phenyl)-2-hydroxy-ethyl]-2-methyl-butyramide (diastereoisomer 2)] | 13.8 nM | –
